Test results from US20100249064A1, “METHODS AND COMPOSITIONS FOR TREATING DISEASES AND CONDITIONS INVOLVING HIGHER MOLECULAR WEIGHT HYALURONAN” (University of Chicago, priority 2007, published 2010).
“Also recorded” adds a separate entry of the source.

Tests used:
ARDS = conditions: cited from earlier work; for Outcome (clinical trials in ARDS): patients with ARDS
Rac1 = Rac1 activation assay, HGF; type: cell-based, human; conditions: HGF 25 ng/ml
Experimental: Rac1 Activation Assay—Rac1 activity assays were performed as described (Ren et al., 1999) in human lung EC.

[1] = system: LPS-induced murine lung vascular permeability; test: LPS-induced murine lung vascular permeability, bronchioalveolar lavage (BAL) protein and cytokines; type: in vivo, mouse
Experimental: Animal Preparation and Treatment—Male C57BL/6J and CD44 knockout mice (8-10 weeks, Jackson Laboratories, Bar Harbor, Me.) were anesthetized with intraperitoneal ketamine (150 mg/kg) and acetylpromazine (15 mg/kg) according to approved protocols. LPS (2.5 mg/kg) or saline (control) were instilled intratracheally and four hours later, HGF (50 μg/kg) or saline control delivered intravenously through the internal jugular vein. The animals were allowed to recover for 24 h followed by bronchioalveolar lavage protein analysis and/or lung immunohistochemistry.
Determination of Bronchioalveolar Lavage Protein Concentration—Bronchioalveolar lavage (BAL) was performed by an intratracheal injection of 1 cc of Hank's balanced salt solution followed by gentle aspiration. The recovered fluid was processed for protein concentration (BCA Protein Assay Kit; Pierce Chemical Co., Rockford, Ill.) as described (Su et al., 2004).
Animals. Male C57BL/6J mice, CD44 knockout mice, Caveolin-1 knockout mice (8-10 weeks, Jackson Laboratories, Bar Harbor, Me.) were anesthetized with intraperitoneal ketamine (150 mg/kg) and acetylpromazine (15 mg/kg) according to approved protocols. LPS (2.5 mg/kg) or saline (control) were instilled intratracheally and four hours later, HMW-HA (1.5 mg/kg) or saline control delivered intravenously through the internal jugular vein. The animals were allowed to recover for 24 hours followed by bronchioalveolar lavage protein analysis and/or lung immunohistochemistry.
Determination of protein concentration. Total protein concentration. TGF-alpha concentration. TGF-beta1 concentration. Bronchioalveolar lavage (BAL) was performed by an intratracheal injection of 1 cc of Hank's balanced salt solution followed by gentle aspiration. The recovered fluid was processed for protein concentration (BCA Protein Assay Kit; Pierce Chemical Co., Rockford, Ill.) or used to determine TNF-α and TGF-β1 concentrations using quantitative sandwich enzyme immunoassays (R & D Systems, Minneapolis, Minn.).
Animal Preparation and Treatment. Male C57BL/6J, B6129N2, CD44^−/− or caveolin-1^−/− mice (8-10 weeks, Jackson Laboratories, Bar Harbor, Me.) were anesthetized with intraperitoneal ketamine (150 mg/kg) and acetylpromazine (15 mg/kg) before exposure of the right internal jugular vein via neck incision. LPS (2.5 mg/kg) or water (control) were instilled intratracheally. Four hours later, mice receive high MW HA (1.5 mg/kg) or water control through the internal jugular vein. The animals were allowed to recover for 24 hours after LPS before bronchioalveolar lavage protein and cytokine concentration and/or lung immunohistochemistry/immunoblot analysis (Peng et al., 2004).
Determination of Bronchoavleolar Lavage Protein and Cytokine Concentration. Bronchioalveolar lavage (BAL) was performed by an intratracheal injection of 1 cc of Hank's balanced salt solution followed by gentle aspiration. The recovered fluid was processed for protein concentration (BCA Protein Assay Kit; Pierce Chemical Co., Rockford, Ill.) (Peng et. al., 2004). Cytokines (IL-6, TNFalpha) were measured using a Quantikine sandwich ELISA kit (R & D Systems).

[2] = system: c-Met, CD44v10, Tiam1, cortactin, dynamin 2 in CEM; test: HGF-induced recruitment of proteins to caveolin-enriched microdomains (CEM); type: cell-based, human
Experimental: Caveolin-enriched microdomain (CEM) isolation—Caveolin-enriched microdomain known as detergent-resistant membranes (DRM) or lipid rafts were isolated from HPMVEC (Singleton et al., 2006; Singleton et al., 2005). Triton X-100-insoluble materials were mixed with 0.6 ml of cold 60% Optiprep™ and then overlaid with 0.6 ml of 40%-20% Optiprep™. Gradients were centrifuged (35,000 rpm) in SW60 rotor for 12 h at 4° C. and different fractions were collected and analyzed.
Immunoprecipitation and Immunoblotting—Cellular materials from treated or untreated HPMVEC were incubated with IP buffer (50 mM HEPES (pH 7.5), 150 mM NaCl, 20 mM MgCl2, 1% Nonidet P-40 (NP-40), 0.4 mM Na3VO4, 40 mM NaF, 50 μM okadaic acid, 0.2 mM phenylmethylsulfonyl fluoride, 1:250 dilution of Calbiochem protease inhibitor mixture 3). Following immunoprecipitation with either anti-CD44 or anti-dynamin 2 IgG, the samples were subjected to SDS-PAGE in 4-15% polyacrylamide gels, transferred onto Immobilon™ membranes, and developed with specific primary and secondary antibodies. Enhanced chemiluminescence (Amersham Biosciences) was used to visualize immunoreactive bands. In some instances, standardized average grey values (S.A.G.V., processed from ImageQuant™ software (Amersham Biosciences)) were obtained for immunoreactive bands for quantification.
Determination of Complex Formation between CD44 and c-Met—Solubilized CEM proteins in IP buffer (see above) were immunoprecipitated with rat anti-CD44 antibody or anti-c-Met antibody followed by SDS-PAGE in 4-15% polyacrylamide gels and transfer onto Immobilon™ membranes (Millipore Corp., Bedford, Mass.). Nonspecific sites were blocked with 5% bovine serum albumin, and then the blots were incubated with either rat anti-CD44 antibody or mouse anti-c-Met antibody followed by incubation with horseradish peroxidase (HRP)-labeled goat anti-mouse or goat anti-rat IgG. Visualization of immunoreactive bands was achieved using enhanced chemiluminescence (Amersham Biosciences).

MARCKS and NHE1 = test: LPS-induced phosphorylation of MARCKS and NHE1 (immunoprecipitation/immunoblot); type: cell-based, human; conditions: LPS 1 μg/ml, 4 hours, HMW-HA 100 nM or Y-27632 500 nM
[3] = molecular target: Hyaluronic Acid Binding Protease 2 (HABP2), human (human, UniProt Q14520 24-560, limits assumed); test: anti-HABP2 immunoprecipitation of EC media, non-reducing SDS-PAGE, immunoblot with anti-HABP2 or anti-C1INH
Hyaluronic Acid Binding Protease 2 (HABP2), human, sequence (Q14520 24-560 limits assumed): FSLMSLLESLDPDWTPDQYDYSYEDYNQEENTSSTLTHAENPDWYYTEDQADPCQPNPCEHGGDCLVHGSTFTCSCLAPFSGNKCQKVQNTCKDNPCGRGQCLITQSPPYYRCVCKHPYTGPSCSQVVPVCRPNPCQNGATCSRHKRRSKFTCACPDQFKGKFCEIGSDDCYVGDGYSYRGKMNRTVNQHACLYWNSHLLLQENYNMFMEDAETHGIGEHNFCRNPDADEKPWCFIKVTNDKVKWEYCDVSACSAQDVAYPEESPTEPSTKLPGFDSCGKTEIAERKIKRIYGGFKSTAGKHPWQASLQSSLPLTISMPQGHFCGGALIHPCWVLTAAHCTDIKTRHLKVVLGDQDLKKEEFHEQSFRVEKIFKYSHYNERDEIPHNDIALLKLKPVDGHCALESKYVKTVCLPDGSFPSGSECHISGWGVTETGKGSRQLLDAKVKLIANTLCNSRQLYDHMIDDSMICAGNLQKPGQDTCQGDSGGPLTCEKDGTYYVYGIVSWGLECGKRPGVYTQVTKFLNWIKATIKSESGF

purified HABP2 = molecular target: T1, purified HABP2 (Homo sapiens, UniProt Q14520); test: HABP2 protease assay (QuantiCleave, succinylated casein); type: biochemical; conditions: 100 μM purified PABD, 500 nM HMW-HA or LMW-HA
T1 construct: host or cells: human pulmonary endothelial cells (EC); secreted into the medium, immunoprecipitated with anti-HABP2 antibody
T1 sequence (Q14520 24-560): as the sequence (Q14520 24-560 limits assumed) above
Experimental: HABP2 protease assay. Protease activity is measured using the QuantiCleave™ Protease Assay Kit (Pierce). Briefly, the immunobeads are incubated with succinylated casein for one hour followed by development with TNBSA (2,4,6-trinitrobenzene sulfonic acid) and read at 450 nm.
HABP2 protein purification and protease activity determination. Media from HABP2 overexpression vector-transfected EC (Origene) was immunoprecipitated with anti-HABP2 antibody-conjugated Sepharose beads (Sigma). The immunobeads were then extensively washed in 50 mM Borate, pH=8.5 and eluted with 1M NaCl with 0.1% NP-40 and dialyzed against a 1,000 fold excess of 50 mM Borate, pH=8.5. Protein assays were performed to quantitate total protein. The purified protein was run on SDS-PAGE and either immunoblotted with anti-HABP2 antibody (Novus Biologicals) or stained with Imperial™ protein stain (Pierce) to check for purity. Protease activity was measured using the QuantiCleave™ Protease Assay Kit (Pierce). Briefly, the immunobeads were incubated with succinylated casein for one hour followed by development with TNBSA (2,4,6-trinitrobenzene sulfonic acid) and read at 450 nm.
Determination of the role of HMW-HA/HABP2/C1INH interactions in regulating angiogenesis in vitro. Human pulmonary EC (Cambrex), grown in EBM-2 complete medium (Cambrex) at 37° C. in a humidified atmosphere of 5% CO2, 95% air, with passages 6-10 used for experimentation will be treated with or without 100 nM HMW-HA and/or 100 nM VEGF in the presence or absence of HABP2 and/or C1INH overexpression vectors (Origene), exogenous purified recombinant HABP2 polyanion binding domain and/or C1INH (Novus Biologicals) and/or siRNA (scramble, HABP2 or C1INH). For HABP2 protease activity determination, media from HABP2 overexpressing EC (see above) was immunoprecipitated with anti-HABP2 antibody-conjugated Sepharose beads (Sigma). The immunobeads were then extensively washed in 50 mM Borate, pH=8.5 and protease activity was measured using the QuantiCleave™ Protease Assay Kit (Pierce). Briefly, the immunobeads were incubated with succinylated casein for one hour followed by development with TNBSA (2,4,6-trinitrobenzene sulfonic acid) and read at 450 nm.

C[C@@H](O)CCCCn1c(=O)c2c(ncn2C)n(C)c1=O [Lisofylline]
Outcome (clinical trials in ARDS) (ARDS): trials failed to show efficacy in increasing

C[C@H]1C[C@@H]2[C@H]([C@@H](O)C[C@@]3(C)[C@H]2CC[C@]3(O)C(=O)CO)[C@@]2(C)C=CC(=O)C=C12 [Methyprednisolone]
hospital mortality (ARDS; administered through the fibroproliferative stage of ARDS, 62% in placebo cohort): hospital mortality to 12% from 62% in placebo

HGF: Recombinant human hepatocyte growth factor (HGF), Chemicon International
Rac1 activation (Rac1): induced Rac1 activation
protective effect on LPS-induced pulmonary hyper-permeability (BAL) in knockout mice ([1]; CD44 knockout (and, where stated, Caveolin-1 knockout) mice, same regimen): markedly attenuated in the CD44 knockout mouse; also recorded: significant difference (p<0.05) between the wildtype and CD44 knockout mouse HGF+LPS treatment
LPS-induced pulmonary hyper-permeability (BAL protein concentration) ([1]; wildtype C57BL/6J mice, LPS 2.5 mg/kg intratracheally, HMW-HA 1.5 mg/kg or HGF 50 μg/kg intravenously 4 hours after LPS, BAL at 24 hours): pulmonary hyper-permeability was attenuated; also recorded: significant difference (p<0.05) between LPS treatment and HGF+LPS treatment
recruitment of Tiam1, cortactin and dynamin 2 to CEM ([2]; HGF 25 ng/ml): increased recruitment to these caveolin-enriched plasma membrane microdomain structures
recruitment of total CD44v10 into CD44s-containing CEM ([2]; HGF 25 ng/ml): ~70%
recruitment of total c-Met into CD44s-containing CEM ([2]; HGF 25 ng/ml): ~55%
association of c-Met with CD44v10 in CEM ([2]; HGF 25 ng/ml, 5, 15 or 30 min): induce an association that is time-dependent of c-Met with CD44v10

Nitric Oxide [NO]
adverse effects (ARDS; ARDS patients): causes methemoglobinemia, increased
pulmonary artery pressure (ARDS; ARDS patients): NO reduces pulmonary artery pressure but
Outcome (clinical trials in ARDS) (ARDS): several multicenter clinical trials have shown no

C[C@@H](N)[C@H]1CC[C@H](C(=O)Nc2ccncc2)CC1 [Y-27632, reference compound]
LPS-induced phosphorylation of MARCKS and NHE1 (MARCKS and NHE1): inhibit LPS-induced phosphorylation of MARCKS and NHE1

B1: C1INH, human (other, UniProt P05155 23-500, looked up)
chain: NPNATSSSSQDPESLQDRGEGKVATTVISKMLFVEPILEVSSLPTTNSTTNSATKITANTTDEPTTQPTTEPTTQPTIQPTQPTTQLPTDSPTQPTTGSFCPGPVTLCSDLESHSTEAVLGDALVDFSLKLYHAFSAMKKVETNMAFSPFSIASLLTQVLLGAGENTKTNLESILSYPKDFTCVHQALKGFTTKGVTSVSQIFHSPDLAIRDTFVNASRTLYSSSPRVLSNNSDANLELINTWVAKNTNNKISRLLDSLPSDTRLVLLNAIYLSAKWKTTFDPKKTRMEPFHFKNSVIKVPMMNSKKYPVAHFIDQTLKAKVGQLQLSHNLSLVILVPQNLKHRLEDMEQALSPSVFKAIMEKLEMSKFQPTLLTLPRIKVTTSQDMLSIMEKLEFFDFSYDLNLCGLTEDPDLQVSAMQHQTVLELTETGVEAAAASAISVARTLLVFEVQQPFLFVLWDQQHKFPVFMGRVYDPRA
notes: also called C1NH; C1 NH
binding result [3]: binds

B2: recombinant peptide of the PABD of HABP2: recombinant HABP2 polyanion binding domain, amino acids 110-188 of SEQ ID NO:2 (SEQ ID NO:37) (protein, listed as Homo sapiens)
chain: KVQNTCKDNPCGRGQCLITQSPPYYRCVCKHPYTGPSCSQVVPVCRPNPCQNGATCSRHKRRSKFTCACPDQFKGKFCE
blocking of HA effects on HABP2 protease activity (purified HABP2): The effects of LMW-HA, but not HMW-HA, were blocked
